Test results published in the NIST ThermoML archive (doi:10.1021/je300234g).
± gives the expanded uncertainty stated by the source.

Columns and labels:
[1] = relative permittivity at zero frequency (dimensionless); conditions: 101.3 kPa, Liquid, Parallel plate capacitor
[2] = Crystal; visual observation

Row | relative permittivity at zero frequency ([1]; 315.65 K) | relative permittivity at zero frequency ([1]; 318.15 K) | relative permittivity at zero frequency ([1]; 320.65 K) | relative permittivity at zero frequency ([1]; 323.15 K) | relative permittivity at zero frequency ([1]; 325.65 K) | relative permittivity at zero frequency ([1]; 328.15 K) | relative permittivity at zero frequency ([1]; 330.65 K) | relative permittivity at zero frequency ([1]; 333.15 K) | relative permittivity at zero frequency ([1]; 335.65 K) | relative permittivity at zero frequency ([1]; 338.15 K) | relative permittivity at zero frequency ([1]; 340.65 K) | relative permittivity at zero frequency ([1]; 343.15 K) | relative permittivity at zero frequency ([1]; 345.65 K) | relative permittivity at zero frequency ([1]; 348.15 K) | relative permittivity at zero frequency ([1]; 350.65 K) | relative permittivity at zero frequency ([1]; 353.15 K) | Normal melting temperature [2] [°C] | relative permittivity at zero frequency ([1]; 295.65 K) | relative permittivity at zero frequency ([1]; 298.15 K) | relative permittivity at zero frequency ([1]; 300.65 K) | other results | Compound
1 | 8.9 ± 0.09 | 8.86 ± 0.09 | 8.82 ± 0.09 | 8.77 ± 0.09 | 8.73 ± 0.09 | 8.69 ± 0.09 | 8.64 ± 0.09 | 8.59 ± 0.09 | 8.54 ± 0.09 | 8.49 ± 0.09 | 8.44 ± 0.08 | 8.39 ± 0.08 | 8.34 ± 0.08 | 8.29 ± 0.08 | 8.24 ± 0.08 | 8.19 ± 0.08 | 43.4 ± 3 |  |  |  |  | C1COCCOCCOCCOCCOCCO1 [1,4,7,10,13,16-hexaoxacyclooctadecane]
2 | 14.14 ± 0.14 | 13.96 ± 0.14 | 13.79 ± 0.14 | 13.63 ± 0.14 | 13.46 ± 0.13 | 13.3 ± 0.13 | 13.15 ± 0.13 | 13 ± 0.13 |  |  |  |  |  |  |  |  | -20 ± 1 | 15.68 ± 0.16 | 15.48 ± 0.15 | 15.28 ± 0.15 | relative permittivity at zero frequency ([1]; 273.15 K): 17.82 ± 0.18; relative permittivity at zero frequency ([1]; 275.65 K): 17.56 ± 0.18; relative permittivity at zero frequency ([1]; 278.15 K): 17.3 ± 0.17; relative permittivity at zero frequency ([1]; 280.65 K): 17.05 ± 0.17; relative permittivity at zero frequency ([1]; 283.15 K): 16.81 ± 0.17; relative permittivity at zero frequency ([1]; 285.65 K): 16.57 ± 0.17; relative permittivity at zero frequency ([1]; 288.15 K): 16.34 ± 0.16; relative permittivity at zero frequency ([1]; 290.65 K): 16.11 ± 0.16; relative permittivity at zero frequency ([1]; 293.15 K): 15.89 ± 0.16; relative permittivity at zero frequency ([1]; 303.15 K): 15.08 ± 0.15; relative permittivity at zero frequency ([1]; 305.65 K): 14.88 ± 0.15; relative permittivity at zero frequency ([1]; 308.15 K): 14.69 ± 0.15; relative permittivity at zero frequency ([1]; 310.65 K): 14.5 ± 0.15; relative permittivity at zero frequency ([1]; 313.15 K): 14.31 ± 0.14 | C1COCCOCCOCCOCCO1 [1,4,7,10,13-pentaoxacyclopentadecane]
3 | 10 ± 0.1 | 9.9 ± 0.1 | 9.79 ± 0.1 | 9.69 ± 0.1 | 9.59 ± 0.1 | 9.49 ± 0.1 | 9.41 ± 0.09 | 9.31 ± 0.09 | 9.22 ± 0.09 | 9.13 ± 0.09 | 9.04 ± 0.09 | 8.94 ± 0.09 | 8.86 ± 0.09 | 8.76 ± 0.09 | 8.68 ± 0.09 | 8.59 ± 0.09 | 16 ± 1 | 10.95 ± 0.11 | 10.82 ± 0.11 | 10.7 ± 0.11 | relative permittivity at zero frequency ([1]; 303.15 K): 10.58 ± 0.11; relative permittivity at zero frequency ([1]; 305.65 K): 10.45 ± 0.1; relative permittivity at zero frequency ([1]; 308.15 K): 10.34 ± 0.1; relative permittivity at zero frequency ([1]; 310.65 K): 10.22 ± 0.1; relative permittivity at zero frequency ([1]; 313.15 K): 10.11 ± 0.1 | C1COCCOCCOCCO1 [1,4,7,10-tetraoxacyclododecane]
